Data set [1] has as its target T1, Solute carrier organic anion transporter family member 1B1 (Homo sapiens, UniProt Q9Y6L6).
T1 sequence (Q9Y6L6 whole entry): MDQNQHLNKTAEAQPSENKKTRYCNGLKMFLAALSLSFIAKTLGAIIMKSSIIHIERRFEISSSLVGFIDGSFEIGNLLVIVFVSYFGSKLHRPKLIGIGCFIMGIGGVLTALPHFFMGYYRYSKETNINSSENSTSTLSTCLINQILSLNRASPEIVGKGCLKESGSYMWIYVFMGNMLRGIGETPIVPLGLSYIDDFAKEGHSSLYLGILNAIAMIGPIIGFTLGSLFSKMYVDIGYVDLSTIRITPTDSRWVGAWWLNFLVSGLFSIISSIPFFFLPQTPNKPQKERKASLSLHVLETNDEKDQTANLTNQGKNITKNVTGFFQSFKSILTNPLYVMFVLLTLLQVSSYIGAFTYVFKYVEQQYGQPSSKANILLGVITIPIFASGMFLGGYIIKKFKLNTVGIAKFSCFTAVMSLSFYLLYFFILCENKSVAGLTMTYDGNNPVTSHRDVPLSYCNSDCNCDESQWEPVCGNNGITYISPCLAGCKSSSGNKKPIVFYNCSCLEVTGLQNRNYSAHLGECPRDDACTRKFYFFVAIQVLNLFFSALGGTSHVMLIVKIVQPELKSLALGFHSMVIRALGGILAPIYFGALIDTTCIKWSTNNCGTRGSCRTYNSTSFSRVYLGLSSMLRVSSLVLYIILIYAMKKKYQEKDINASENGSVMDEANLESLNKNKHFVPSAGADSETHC
As to conditions: chinese hamster, cho, 10 µM.

For data set [2], the target named is T2, Solute carrier organic anion transporter family member 1B3 (Homo sapiens, UniProt Q9NPD5).
T2 sequence (Q9NPD5 whole entry): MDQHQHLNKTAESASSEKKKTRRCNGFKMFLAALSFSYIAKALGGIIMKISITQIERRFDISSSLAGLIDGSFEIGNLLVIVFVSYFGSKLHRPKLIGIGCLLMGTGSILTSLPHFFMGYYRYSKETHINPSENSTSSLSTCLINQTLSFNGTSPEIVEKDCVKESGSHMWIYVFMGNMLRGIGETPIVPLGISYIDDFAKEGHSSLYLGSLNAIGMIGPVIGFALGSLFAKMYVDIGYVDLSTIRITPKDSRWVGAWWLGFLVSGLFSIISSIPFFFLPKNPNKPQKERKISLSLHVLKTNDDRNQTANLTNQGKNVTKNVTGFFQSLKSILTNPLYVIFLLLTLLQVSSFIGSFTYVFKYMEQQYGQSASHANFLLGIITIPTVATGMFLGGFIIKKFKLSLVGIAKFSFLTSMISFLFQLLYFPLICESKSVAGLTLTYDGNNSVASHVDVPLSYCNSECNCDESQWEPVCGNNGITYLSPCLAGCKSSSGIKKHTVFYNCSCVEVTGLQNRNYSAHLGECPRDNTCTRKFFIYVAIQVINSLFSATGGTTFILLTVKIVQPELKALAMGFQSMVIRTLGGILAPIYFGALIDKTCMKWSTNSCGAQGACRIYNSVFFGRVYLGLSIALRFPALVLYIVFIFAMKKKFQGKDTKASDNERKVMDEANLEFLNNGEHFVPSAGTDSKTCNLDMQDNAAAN
Particulars: chinese hamster, cho, 10 µM.

What is called residual activity is the signal under treatment as a percentage of the control signal.

Each structure is given as a SMILES string.

`CC(COc1ccccc1)NC(C)C(O)c1ccc(O)cc1.Cl` (stereo not given) [ISOXSUPRINE HYDROCHLORIDE]: the residual activity in data set [1] is 38.44%; in data set [2] it was 77.52%.
Turning to `C/C=C(/C)C(=O)O[C@@H]1Cc2c(ccc3ccc(=O)oc23)OC1(C)C` [JATAMANSIN], the residual activity turned out to be 165.1% in data set [1] and 153% in data set [2].
As for `O=C(O)/C=C/C=C/c1ccccc1` [JUAREZIC ACID], the residual activity in data set [1] worked out at 102.3%; in data set [2], 88.74%.
The matching figures for `O=C1C=CC(=O)c2c(O)cccc21` [JUGLONE]: 66.93% and 93.79%.
As for `C=C(C)[C@H]1CN[C@H](C(=O)O)[C@H]1CC(=O)O` [KAINIC ACID], the residual activity is recorded as 106.3% in data set [1] and 103.1% in data set [2].
Taken in the same sequence, the figures for `C[C@@H]1O[C@@H](O[C@H]2[C@H](O[C@H]3CC[C@@]4(C)[C@@H](CC[C@]5(C)[C@@H]4CC=C4[C@@H]6CC(C)(C)CC[C@]6(C(=O)O[C@@H]6O[C@H](CO[C@@H]7O[C@H](CO)[C@@H](O[C@@H]8O[C@@H](C)[C@H](O)[C@@H](O)[C@H]8O)[C@H](O)[C@H]7O)[C@@H](O)[C@H](O)[C@H]6O)CC[C@]45C)[C@]3(C)CO)OC[C@H](O)[C@@H]2O)[C@H](O)[C@H](O)[C@H]1O` [KALOPANAXSAPONIN B] were 127.7% and 109.8%.
With `COc1c(-c2ccccc2)oc2c(ccc3occc32)c1=O` [KARANJIN], the residual activity came to 50.39% in data set [1] and 124.7% in data set [2].
For the molecule `Oc1cc(O)c2c(c1)O[C@H](c1cc(O)c(O)c(O)c1)[C@H](O)[C@H]2c1c(O)cc(O)c2c1O[C@H](c1cc(O)c(O)c(O)c1)[C@H](O)[C@H]2c1c(O)cc(O)c2c1O[C@H](c1cc(O)c(O)c(O)c1)[C@H](O)C2` [KATACINE], the residual activity came out at 133.4% in data set [1] and 99.79% in data set [2].
For `NC(CO)(CO)CO.O=C(c1ccccc1)c1ccc2n1CCC2C(=O)O` (stereo not given) [KETOROLAC TROMETHAMINE], the residual activity is on record as 196.1% in data set [1] and 87.08% in data set [2].
For the molecule `CN1CCC(=C2c3ccccc3CC(=O)c3sccc32)CC1.O=C(O)/C=C/C(=O)O` [KETOTIFEN FUMARATE], the residual activity is listed as 94.79% in data set [1] and 89.36% in data set [2].
`CCC(=O)OC1[C@@H]2CC3=C4CC(=O)O[C@@H](c5ccoc5)[C@]4(C)CCC3[C@@](C)(C2=O)[C@@H](CC(=O)OC)C1(C)C` (stereo not given in full) [KHAYASIN C]: the residual activity in data set [1] stood at 59.29%; in data set [2], 67.18%.
For `CCC(C)C(=O)OC1[C@@H]2CC3=C4CC(=O)O[C@@H](c5ccoc5)[C@]4(C)CCC3[C@@](C)(C2=O)[C@@H](CC(=O)OC)C1(C)C` (stereo not given in full) [KHAYASIN], the residual activity was 98.52% in data set [1] and 83.34% in data set [2].
As for `COc1c2occc2c(OC)c2c(=O)cc(C)oc12` [KHELLIN], the residual activity turned out to be 83.15% in data set [1] and 102.2% in data set [2].
The matching figures for `CC(=O)O[C@H]1C[C@@H](OC(C)=O)C(C)(C)[C@@H]2C[C@@H](OC(C)=O)[C@]3(C)[C@H](CC[C@@]4(C)[C@H](c5ccoc5)OC(=O)[C@H]5O[C@@]534)[C@@]12C` [KHIVORIN]: 77.22% and 94.96%.
Taken in the same sequence, the figures for `COc1ccc(-c2coc3cc(O)ccc3c2=O)c(OC)c1O` [KHRINONE E] were 85.61% and 96.23%.
In the case of `OC[C@H]1O[C@@H](n2cnc3c(NCc4ccco4)ncnc32)[C@H](O)[C@@H]1O` [KINETIN RIBOSIDE], the results for the residual activity in data set [1] and in data set [2] were 114.7% and 112%, respectively.
On to `c1coc(CNc2ncnc3[nH]cnc23)c1` [KINETIN], for which the residual activity in data set [1] was 96.48%; in data set [2], 100.6%.
Regarding `CC1(C)C[C@@H]2C(=O)CC[C@H]3O[C@]3(C)CC[C@H]21` [KOBUSONE], the residual activity worked out at 64.48% in data set [1] and 84.64% in data set [2].
With `O=c1cc(CO)occ1O` [KOJIC ACID], the results for the residual activity in data set [1] and in data set [2] were 79.88% and 80.38%, respectively.
The matching figures for `COc1ccc(-c2coc3cc(O)ccc3c2=O)c(O)c1O` [KOPARIN]: 88.35% and 86.85%.
For `COc1c(O)cc2c(-c3ccccc3)cc(=O)oc2c1OC` [KUHLMANNIN], the residual activity was 128.2% in data set [1] and 118.4% in data set [2].
Taken in the same sequence, the figures for `NCCC(=O)c1ccccc1N` [KYNURAMINE] were 113.9% and 89.22%.
Turning to `Nc1ccccc1C(=O)CC(N)C(=O)O` (stereo not given) [KYNURENINE], the residual activity in data set [1] was 58.07%; in data set [2] it was 67.15%.
For `C[C@H](N)CO` [L-ALANINOL], the residual activity turned out to be 73.39% in data set [1] and 104% in data set [2].
The matching figures for `NC(=O)NCCC[C@H](N)C(=O)O` [L-CITRULLINE]: 135.1% and 119.7%.
As to `N[C@H](CO)Cc1ccccc1` [L-PHENYLALANINOL], the residual activity in data set [1] was 77.2%; in data set [2] it was 101.5%.
For the molecule `CC(CCc1ccccc1)NCC(O)c1ccc(O)c(C(N)=O)c1.Cl` (stereo not given) [LABETALOL HYDROCHLORIDE], the residual activity in data set [1] came out at 93.55%; in data set [2], 101.4%.
`OC[C@H]1O[C@@H](O[C@@H]2[C@@H](CO)O[C@](O)(CO)[C@H]2O)[C@H](O)[C@@H](O)[C@H]1O` [LACTULOSE]: the residual activity in data set [1] turned out to be 90.31%; in data set [2] it was 104.9%.
For the molecule `C[C@@H]1CC[C@H]2[C@](C)(CO)[C@@H](O)CC[C@]2(C)[C@@]12CC[C@@](CO)(CCO)O2` [LAGOCHILINE], the values for the residual activity in data set [1] and in data set [2] were 99.12% and 95.67%, respectively.
Regarding `CC(=O)O[C@H]1C[C@H](O[C@H]2[C@@H](O)C[C@H](O[C@H]3[C@@H](O)C[C@H](O[C@H]4CC[C@@]5(C)[C@H](CC[C@@H]6[C@@H]5C[C@@H](O)[C@]5(C)[C@@H](C7=CC(=O)OC7)CC[C@]65O)C4)O[C@@H]3C)O[C@@H]2C)O[C@H](C)[C@H]1O[C@@H]1O[C@H](CO)[C@@H](O)[C@H](O)[C@H]1O` [LANATOSIDE C], the figures for the residual activity in data set [1] and in data set [2] were 102.5% and 86.15%, respectively.
Taken in the same sequence, the figures for `CC(C)=CCC[C@@H](C)[C@H]1CC[C@@]2(C)C3=C(CC[C@]12C)[C@@]1(C)CC[C@H](O)C(C)(C)[C@@H]1CC3` [LANOSTEROL] were 53.97% and 90.91%.
On to `Cc1c(OCC(F)(F)F)ccnc1C[S+]([O-])c1nc2ccccc2[nH]1` (stereo not given) [LANSOPRAZOLE], for which the figures for the residual activity in data set [1] and in data set [2] were 95.47% and 100.5%, respectively.
`CC(C)=CCC1=C(O)C(=O)c2ccccc2C1=O` [LAPACHOL]: the residual activity in data set [1] is 115.5%; in data set [2] it was 108.2%.
As to `COc1ccc(CC2c3cc(OC)c(OC)cc3CCN2C)cc1OC` (stereo not given) [LAUDANOSINE], the residual activity in data set [1] was found to be 107.4%; in data set [2] it was 114.7%.
On to `O=C1C=C(O)C(=O)c2ccccc21` [LAWSONE], for which the figures for the residual activity in data set [1] and in data set [2] were 99.76% and 101.6%, respectively.

Values taken from ChEMBL document CHEMBL3039007, “Structure-based identification of OATP1B1/3 inhibitors” (Mol Pharmacol, 2013).
